The record followed here is PMC9264368, “Structural Analysis and Development of Notum Fragment Screening Hits” (ACS Chemical Neuroscience, 2022).

Data set [1] has as its target T1, Notum (Homo sapiens, UniProt Q6P988, C330S).
T1 sequence (Q6P988 81-451 C330S): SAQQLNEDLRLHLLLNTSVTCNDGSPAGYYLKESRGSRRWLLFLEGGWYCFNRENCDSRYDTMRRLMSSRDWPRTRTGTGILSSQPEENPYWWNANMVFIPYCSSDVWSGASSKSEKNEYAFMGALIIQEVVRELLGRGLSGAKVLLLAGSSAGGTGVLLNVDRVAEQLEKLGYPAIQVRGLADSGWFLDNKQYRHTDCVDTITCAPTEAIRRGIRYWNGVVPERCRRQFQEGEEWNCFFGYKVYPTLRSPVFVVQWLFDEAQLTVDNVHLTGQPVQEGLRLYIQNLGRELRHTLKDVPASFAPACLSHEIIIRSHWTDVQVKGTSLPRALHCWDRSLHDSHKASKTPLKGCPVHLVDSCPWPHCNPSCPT
To be noted: for fold improvement in Notum inhibition: versus parent: 7 vs 26, 16a vs 16, 15a vs 15, 7c vs 7b; for IC50: read-out: Notum IC50, Table S1, mean ± s.d. of N = 2-4 unless stated; for LE (ligand efficiency): LE = 1.4(−pIC50)/HAC; for LLE (lipophilic ligand efficiency): LLE = pIC50 – clogP; for LE / LLE: supplementary CSV.

The target of data set [2] is T1, Notum. Briefly: biochemical.
Where [3] appears, read: Notum IC50, OPTS substrate, 10-point curves 30 nM to 1 mM, mean ± s.d. of N = 2–4 unless stated, Table 1 and figures.
Where [4] appears, read: IC50 (µM), supplementary CSV, Notum IC50 values for 1–58.
[5] abbreviates: pIC50, Table 1, Notum OPTS assay.

Molecules are shown by their SMILES. Where two headings read alike, the source gives them in different places.

`OCc1cn(-c2ccc(Cl)c(C(F)(F)F)c2Cl)nn1` [7c]: the “fold improvement in Notum inhibition” value at Notum [1] is listed as 7 fold.
`Cc1cccc2[nH]c(NC#N)nc12` [15a, N-(4-Methyl-1H-benzo[d]imidazol-2-yl)cyanamide]: the “fold improvement in Notum inhibition” value on Notum [1] stood at 18 fold. The compound further came in with a 50% inhibitory concentration (IC50) at Notum [2] (setting [3]) of 0.94 ± 0.06 µM.
As to `Cn1c(NC#N)nc2ccccc21` [15b], on Notum [1], the IC50 worked out at 5 ± 0.77 µM.
The same measure, in the same setting: the value for `N#CNc1nc2c(Cl)cccc2[nH]1` [15c] was 2.2 ± 0.31 µM; that for `N#CNc1nc2c(Br)cccc2[nH]1` [15d] was 2.3 ± 0.54 µM.
The same measure, in the same setting: for `N#CNc1nc2c(C(F)(F)F)cccc2[nH]1` [15e] the value was 12 ± 1.4 µM; for `COc1cccc2[nH]c(NC#N)nc12` [15f], 14 ± 1.3 µM.
The same measure, in the same setting: for `Cc1ccc2[nH]c(NC#N)nc2c1` [15g] the value was 100 ± 4.4 µM; for `N#CNc1nc2cc(Cl)ccc2[nH]1` [15h], 29 ± 16 µM; for `N#CNc1nc2cc(Br)ccc2[nH]1` [15i], 15 ± 3.7 µM.
In the case of `N#CNc1nc2cc(C(F)(F)F)ccc2[nH]1` [15j], the IC50 on Notum [1] stood at 36 ± 5.7 µM.
On the same count and under the same terms, the value for `Cc1cccc2c1nc(NC#N)n2C` [15k] was 9.3 ± 3.8 µM.
The same measure, in the same setting: for `Cc1cccc2nc(NC#N)n(C)c12` [15l] the value was 2.2 ± 0.48 µM; for `Cc1ccc2[nH]c(NC#N)nc2c1C` [15m], 18 ± 5.1 µM.
In the case of `FC(F)(F)c1cc(-c2cc[nH]n2)ccc1Cl` [16a], the “fold improvement in Notum inhibition” value at Notum [1] worked out at 2.3 fold. The compound further displayed a half-maximal inhibitory concentration (IC50) against Notum [2] (setting [3]) of 1.4 ± 0.1 µM.
`FC(F)(F)c1cc(CNCc2ccc3c(c2)OCO3)ccc1Cl` [28a, 1-(Benzo[d][1,3]dioxol-5-yl)-N-(4-chloro-3-(trifluoromethyl)benzyl)methanamine] returned an IC50 against Notum [2] (setting [3]) of 16 ± 1.5 µM.
As to `CCNC(=O)Nc1cc(C)on1` [compound 1], the IC50 at Notum [2] (setting [4]) and at Notum [2] (setting [3]) was greater than 1000 µM in each case.
`CC(=O)Nc1cccc2nonc12` [compound 2]: on Notum [1], the “LE (ligand efficiency)” value was found to be 0.42, the “LLE (lipophilic ligand efficiency)” value is 2.5, the LE is given as 0.42 and the LLE was 2.5. At Notum [2] (setting [3]), this compound had an IC50 of 140 ± 31 µM.
Regarding `OCc1ccc(-n2cnc3ccccc32)cc1` [compound 4, [4-(1H-1,3-Benzimidazol-1-yl-)phenyl]methanol], on Notum [1], the “LE (ligand efficiency)” value is recorded as 0.35, the “LLE (lipophilic ligand efficiency)” value is listed as 1.7, the LE is given as 0.35 and the LLE was 1.7. Further, 54 ± 16 µM corresponded to half-maximal inhibition on Notum [2] (setting [3]) (IC50).
For `c1cnc(Oc2ccc(-c3cc[nH]n3)cc2)nc1` [compound 5, 2-[4-(1H-Pyrazol-3-yl)phenoxy]pyrimidine], on Notum [1], the “LE (ligand efficiency)” value worked out at 0.25, the “LLE (lipophilic ligand efficiency)” value came out at 1.3, the LE was 0.25 and the LLE amounted to 1.3. On Notum [2] (setting [3]), this compound showed an IC50 of 480 ± 82 µM.
For `COC(=O)c1ccccc1Oc1ccc(N)cc1` [compound 6, Methyl 2-(4-aminophenoxy)benzoate], at Notum [1], the “LE (ligand efficiency)” value amounted to 0.28, the “LLE (lipophilic ligand efficiency)” value was 0.9, the LE worked out at 0.28 and the LLE came out at 0.9. Also, on Notum [2] (setting [3]), half-maximal inhibition (IC50) was put at 260 ± 120 µM.
`O=C(NCCc1ccncc1)NC1CCCCC1` [compound 9]: the half-maximal inhibitory concentration (IC50) against Notum [2] (setting [4]) and against Notum [2] (setting [3]) was greater than 1000 µM each time.
With `Cc1nc2ccccn2c1C(=O)NCC(C)C` [compound 10], at Notum [1], the “LE (ligand efficiency)” value was 0.26, the “LLE (lipophilic ligand efficiency)” value came to 0.6, the LE came out at 0.26 and the LLE came out at 0.6. At Notum [2] (setting [3]), this compound yielded an IC50 of 700 ± 100 µM.
`Nc1ccc(S(=O)(=O)Nc2ccccn2)cc1` [compound 11, 4-Amino-N-(2-pyridin-2-yl)benzenesulfonamide]: the IC50 on Notum [2] (setting [4]) and on Notum [2] (setting [3]) was greater than 1000 µM in each case.
In the case of `N#Cc1ccc(Cn2cnc3ccccc32)cc1` [compound 12, 4-(Benzimidazol-1-ylmethyl)benzonitrile], on Notum [1], the “LE (ligand efficiency)” value turned out to be 0.25, the “LLE (lipophilic ligand efficiency)” value stood at 0.7, the LE is on record as 0.25 and the LLE is 0.7. On Notum [2] (setting [3]), the midpoint of inhibition, the IC50, lay at 570 ± 20 µM.
With `Nc1ccccc1OCc1ccccc1` [compound 13, 2-(Benzyloxy)aniline], on Notum [1], the “LE (ligand efficiency)” value came out at 0.33, the “LLE (lipophilic ligand efficiency)” value amounted to 0.6, the LE is 0.33 and the LLE came to 0.6. At Notum [2] (setting [3]), the midpoint of inhibition, the IC50, lay at 280 ± 110 µM.
On to `O=C(O)Cc1ccc(-c2ccccc2)cc1` [compound 14, 2-[(1,1’-Biphenyl)-4-yl]acetic acid], for which, on Notum [1], the “LE (ligand efficiency)” value is 0.33, the “LLE (lipophilic ligand efficiency)” value amounted to 0.9, the LE is on record as 0.33 and the LLE was 0.9. On Notum [2] (setting [3]), inhibition was half-maximal at 58 ± 8.2 µM (IC50).
For `N#CNc1nc2ccccc2[nH]1` [compound 15], at Notum [1], the “LE (ligand efficiency)” value is reported as 0.56, the “LLE (lipophilic ligand efficiency)” value came to 3.5 and the LLE is reported as 3.5. Inhibition against Notum [2] (setting [3]) was half-maximal at 17 ± 0.9 µM (IC50).
On to `Oc1c(F)cc(F)cc1-c1cc[nH]n1` [compound 16], for which, at Notum [1], the “LE (ligand efficiency)” value was 0.55, the “LLE (lipophilic ligand efficiency)” value amounted to 3.6, the LE came out at 0.55 and the LLE turned out to be 3.6. At Notum [2] (setting [3]), this compound showed an IC50 of 3.3 ± 0.4 µM. For the same compound, it took 3.16 µM to reach half-maximal inhibition against Notum [2] (setting [5]) (IC50).
Regarding `COc1ccc(-c2cc[nH]n2)c(O)c1` [compound 17], on Notum [1], the “LE (ligand efficiency)” value is on record as 0.51, the “LLE (lipophilic ligand efficiency)” value is recorded as 2.9, the LE stood at 0.51 and the LLE turned out to be 2.9. Further, the half-inhibitory concentration (IC50) against Notum [2] (setting [3]) turned out to be 34 ± 5.7 µM. Besides, at Notum [2] (setting [5]), the half-inhibitory concentration (IC50) is 31.6 µM.
For the compound `Nc1ccc(NCc2cccnc2)c(C(=O)O)c1` [compound 18], on Notum [1], the “LE (ligand efficiency)” value is on record as 0.32, the “LLE (lipophilic ligand efficiency)” value is recorded as 3.0, the LE was determined as 0.32 and the LLE is given as 3. This compound also showed an IC50 at Notum [2] (setting [3]) of 63 ± 12 µM.
Regarding `C[C@H]1CCCCN1C(=O)N1CCOCC1` [compound 19], at Notum [1], the “LE (ligand efficiency)” value is recorded as 0.29, the “LLE (lipophilic ligand efficiency)” value is recorded as 1.2, the LE is 0.29 and the LLE amounted to 1.2. Moreover, the midpoint of inhibition against Notum [2] (setting [3]), the IC50, lay at 750 ± 17 µM.
On to `Nc1nonc1N1CCCCC1` [compound 20], for which, on Notum [1], the “LE (ligand efficiency)” value worked out at 0.46, the “LLE (lipophilic ligand efficiency)” value turned out to be 2.7, the LE was 0.46 and the LLE turned out to be 2.7. In addition, the IC50 at Notum [2] (setting [3]) came out at 110 ± 21 µM. The compound also had a 50% inhibitory concentration (IC50) on Notum [2] (setting [5]) of 126 µM.
Turning to `Cc1ccc(CN(C)Cc2ccccc2)o1` [compound 21], at Notum [1], the “LE (ligand efficiency)” value worked out at 0.26, the “LLE (lipophilic ligand efficiency)” value is recorded as -0.4, the LE is 0.26 and the LLE is given as -0.4. On Notum [2] (setting [3]), this compound returned an IC50 of 930 ± 69 µM.
`CCOc1cccc(-c2nnc(N)s2)c1` [compound 22]: at Notum [1], the “LE (ligand efficiency)” value came out at 0.38, the “LLE (lipophilic ligand efficiency)” value was 1.8, the LE came to 0.38 and the LLE was determined as 1.8. Also, half-maximal inhibition on Notum [2] (setting [3]) (IC50) required 93 ± 7 µM. This compound had an IC50 on Notum [2] (setting [5]) of 100 µM.
Take `N#CCN1CCN(c2cccc(Cl)c2)CC1` [compound 23]: at Notum [1], the “LE (ligand efficiency)” value is listed as 0.28, the “LLE (lipophilic ligand efficiency)” value turned out to be 0.7 and the LLE is on record as 0.7. Also, at Notum [2] (setting [3]), half-maximal inhibition (IC50) required 600 ± 59 µM.
As to `NCc1cc(-c2ccccc2)no1` [compound 24], at Notum [1], the “LE (ligand efficiency)” value came to 0.53, the “LLE (lipophilic ligand efficiency)” value amounted to 3.7, the LE amounted to 0.53 and the LLE is listed as 3.7. Further, it took 12 ± 3.2 µM to reach half-maximal inhibition against Notum [2] (setting [3]) (IC50).
For `CC(=O)Nc1ccc(Nc2ccccc2)cc1` [compound 25, N-(4-Anilinophenyl)acetamide], at Notum [1], the “LE (ligand efficiency)” value came out at 0.36, the “LLE (lipophilic ligand efficiency)” value is given as 1.6, the LE is 0.36 and the LLE is 1.6. Moreover, the IC50 on Notum [2] (setting [3]) was found to be 86 ± 21 µM.
`CC(=O)Nc1ccc(OCC(=O)O)cc1` [compound 27, (4-Acetamidophenoxy)acetic acid]: the IC50 at Notum [2] (setting [4]) and against Notum [2] (setting [3]) was greater than 1000 µM throughout.
`O=C(NO)OCc1ccccc1` [compound 29, Benzyl N-hydroxycarbamate]: at Notum [1] (at higher concentrations (>100 μM), likely assay interference), the “response in fluorescence in Notum OPTS assay” value was “variable, supramaxial responses in fluoresence”.
In the case of `O=S1(=O)CCN(Cc2ccco2)CC1` [compound 30], the concentration for half-maximal inhibition (IC50) on Notum [2] (setting [4]) and on Notum [2] (setting [3]) was greater than 1000 µM each time.
Regarding `O=C(O)COc1ccc(N2C(=O)CCC2=O)cc1` [compound 39], the IC50 at Notum [2] (setting [4]) and against Notum [2] (setting [3]) was greater than 1000 µM in each case.
For the compound `CCC(=O)Nc1ccc(C)cc1O` [compound 42], the IC50 at Notum [2] (setting [4]) and on Notum [2] (setting [3]) was greater than 1000 µM each time.
`CCOc1ccc(CC(=O)O)cc1` [compound 48]: the IC50 against Notum [2] (setting [4]) and at Notum [2] (setting [3]) was greater than 1000 µM in each case.
On to `O=C(O)COCc1ccccc1` [compound 52], for which the IC50 against Notum [2] (IC50 (µM)) and on Notum [2] (setting [3]) was greater than 1000 µM throughout.
`O=C1CN(C(=O)COc2ccccc2)CCN1` [compound 56]: the IC50 at Notum [2] (setting [4]) and against Notum [2] (setting [3]) was greater than 100 µM in each case.

As a reminder, the IC50 is the midpoint of a concentration-inhibition curve.
